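Exposure lasted 48 hours, with cells grown in 96-well plates and compounds tested at five concentrations. GI50 is the concentration that inhibits growth by half. TGI: total growth inhibition.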
Assays:
Assay in all cases: NCI tumour cell line growth inhibition, 48 h
SK-MEL-5 melanoma = tested on: SK-MEL-5 melanoma
IGROV1 ovarian = tested on: IGROV1 ovarian
A498 renal = tested on: A498 renal
OVCAR-8 ovarian = tested on: OVCAR-8 ovarian
UO-31 renal = tested on: UO-31 renal
OVCAR-3 ovarian = tested on: OVCAR-3 ovarian
COLO 205 colon = tested on: COLO 205 colon
MDA-MB-435 = tested on: MDA-MB-435
DU-145 prostate = tested on: DU-145 prostate
OVCAR-5 ovarian = tested on: OVCAR-5 ovarian
TK-10 renal = tested on: TK-10 renal
SF-295 CNS = tested on: SF-295 CNS
SK-MEL-28 melanoma = tested on: SK-MEL-28 melanoma
SK-OV-3 ovarian = tested on: SK-OV-3 ovarian
HCT-116 colon = tested on: HCT-116 colon
MOLT-4 leukemia = tested on: MOLT-4 leukemia
HOP-92 NSCLC = tested on: HOP-92 NSCLC
HOP-62 NSCLC = tested on: HOP-62 NSCLC
SR leukemia = tested on: SR leukemia
HCT-15 colon = tested on: HCT-15 colon
HL-60(TB) leukemia = tested on: HL-60(TB) leukemia
A549 NSCLC = tested on: A549 NSCLC
SN12C renal = tested on: SN12C renal
SF-539 CNS = tested on: SF-539 CNS
RPMI-8226 leukemia = tested on: RPMI-8226 leukemia
NCI-H23 lung = tested on: NCI-H23 lung
MALME-3M melanoma = tested on: MALME-3M melanoma
OVCAR-4 ovarian = tested on: OVCAR-4 ovarian
U251 CNS = tested on: U251 CNS

Molecule ClCCn1c(CCl)nc2ccc(Cl)cc21 has a TGI (SK-MEL-5 melanoma) of 329 nM, a GI50 (IGROV1 ovarian) of 213 nM and a TGI (IGROV1 ovarian) of 476 nM. For the same molecule, the GI50 (A498 renal) was 2050 nM, the TGI (A498 renal) was 4800 nM and the GI50 (OVCAR-8 ovarian) was 338 nM. The TGI (OVCAR-8 ovarian) was 1600 nM, the GI50 (UO-31 renal) was 1570 nM and the TGI (UO-31 renal) was 3110 nM. For the same molecule, the GI50 (OVCAR-3 ovarian) was 1870 nM, the TGI (OVCAR-3 ovarian) was 3450 nM and the GI50 (COLO 205 colon) was 1550 nM. The TGI (COLO 205 colon) was 3070 nM, the GI50 (MDA-MB-435) was 692 nM and the TGI (MDA-MB-435) was 2120 nM. For the same molecule, the GI50 (DU-145 prostate) was 1750 nM, the TGI (DU-145 prostate) was 3220 nM and the GI50 (OVCAR-5 ovarian) was 1210 nM. It also gave a TGI (OVCAR-5 ovarian) of 2770 nM, a GI50 (TK-10 renal) of 1460 nM and a TGI (TK-10 renal) of 2950 nM. It also gave a GI50 (SF-295 CNS) of 2210 nM, a TGI (SF-295 CNS) of 5500 nM and a GI50 (SK-MEL-28 melanoma) of 1680 nM. The TGI (SK-MEL-28 melanoma) was 3490 nM, the GI50 (SK-OV-3 ovarian) was 305 nM and the TGI (SK-OV-3 ovarian) was 853 nM. The GI50 (HCT-116 colon) was 272 nM, the TGI (HCT-116 colon) was 731 nM and the GI50 (MOLT-4 leukemia) was 305 nM. It also gave a TGI (MOLT-4 leukemia) of 810 nM, a GI50 (HOP-92 NSCLC) of 938 nM and a TGI (HOP-92 NSCLC) of 2630 nM. The GI50 (HOP-62 NSCLC) was 1580 nM, the TGI (HOP-62 NSCLC) was 3300 nM and the GI50 (SR leukemia) was 232 nM. For the same molecule, the TGI (SR leukemia) was 4320 nM, the GI50 (HCT-15 colon) was 392 nM and the TGI (HCT-15 colon) was 2230 nM. For the same molecule, the GI50 (HL-60(TB) leukemia) was 1890 nM, the TGI (HL-60(TB) leukemia) was 4110 nM and the GI50 (A549 NSCLC) was 1760 nM. The TGI (A549 NSCLC) was 4240 nM, the GI50 (SN12C renal) was 257 nM and the TGI (SN12C renal) was 708 nM. The GI50 (SF-539 CNS) was 1440 nM, the TGI (SF-539 CNS) was 2820 nM and the GI50 (RPMI-8226 leukemia) was 1420 nM. For the same molecule, the TGI (RPMI-8226 leukemia) was 3870 nM, the GI50 (NCI-H23 lung) was 252 nM and the TGI (NCI-H23 lung) was 832 nM. For the same molecule, the GI50 (MALME-3M melanoma) was 460 nM, the TGI (MALME-3M melanoma) was 1890 nM and the GI50 (OVCAR-4 ovarian) was 1340 nM. It also gave a TGI (OVCAR-4 ovarian) of 4710 nM, a GI50 (U251 CNS) of 1160 nM and a TGI (U251 CNS) of 2700 nM.

Source: PubChem BioAssay (NCI)
